ChEMBL document CHEMBL5728755, “Spirocycle compounds and methods of making and using same” (2021)

Assays:
Monoglyceride lipase [1] = target: T1, Monoglyceride lipase (Homo sapiens, UniProt Q99685); assay: In Vitro Competitive Activity-Based Protein Profiling: Proteomes (human prefrontal cortex or cell membrane fractions) (50 μL, 1.0 mg/mL total protein concentration) were preincubated with varying concentrations of inhibitors at 37° C. After 30 min, FP-Rh or HT-01 (1.0 μL, 50 μM in DMSO) was added and the mixture was incubated for another 30 min at room temperature. Reactions were quenched with SDS loading buffer (15 μL—4×) and run on SDS-PAGE.
T1 sequence (Q99685 whole entry): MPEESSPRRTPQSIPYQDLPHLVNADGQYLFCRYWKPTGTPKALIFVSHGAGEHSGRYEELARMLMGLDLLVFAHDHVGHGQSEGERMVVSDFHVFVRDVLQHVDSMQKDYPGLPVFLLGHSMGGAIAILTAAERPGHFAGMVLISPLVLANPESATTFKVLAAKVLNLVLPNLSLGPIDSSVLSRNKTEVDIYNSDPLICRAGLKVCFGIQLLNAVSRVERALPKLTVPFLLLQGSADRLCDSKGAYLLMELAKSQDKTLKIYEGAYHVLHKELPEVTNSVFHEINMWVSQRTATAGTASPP

Monoglyceride lipase [2] = target: T2, Monoglyceride lipase (Mus musculus, UniProt O35678); assay: Preparation of Mouse Brain Proteomes from Inhibitor Treated Mice: Inhibitors were administered to wild-type C57B1/6J by oral gavage in a vehicle of polyethylene glycol. Each animal was sacrificed 4 h following administration and brain proteomes were prepared and analyzed according to previously established methods (See Niphakis, M. J., et al. (2011) ACS Chem. Neurosci. and Long, J. Z., et al. Nat. Chem. Biol. 5:37-44).
T2 sequence (O35678 whole entry): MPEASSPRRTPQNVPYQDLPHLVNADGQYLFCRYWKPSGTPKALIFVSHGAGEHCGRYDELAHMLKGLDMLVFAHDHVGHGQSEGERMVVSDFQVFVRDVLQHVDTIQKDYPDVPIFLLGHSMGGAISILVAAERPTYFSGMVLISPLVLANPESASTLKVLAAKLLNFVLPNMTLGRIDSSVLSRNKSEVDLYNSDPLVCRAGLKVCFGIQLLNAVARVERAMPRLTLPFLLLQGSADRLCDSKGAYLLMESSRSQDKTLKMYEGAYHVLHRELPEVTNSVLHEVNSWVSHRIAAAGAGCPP

Row | IC50 (Monoglyceride lipase [1]) [nM] | IC50 (Monoglyceride lipase [2]) [nM] | Compound
1 | < 100 |  | O=C(OC(C(F)(F)F)C(F)(F)F)N1CCC2(CCCN2Cc2cc3cc(Cl)c(Cl)cc3[nH]2)CC1
2 |  | < 100 | O=C(OC(C(F)(F)F)C(F)(F)F)N1CCC2(CCCN2C(=O)c2cc3ccc(F)cc3s2)CC1
3 | < 100 | < 100 | Cc1c(CN2CCCC23CCN(C(=O)OC(C(F)(F)F)C(F)(F)F)CC3)[nH]c2ccc(Cl)cc12
4 |  | < 100 | Cc1ccc2cc(C(=O)N3CCCC34CCN(C(=O)OC(C(F)(F)F)C(F)(F)F)CC4)sc2c1
5 | < 100 |  | COCCN(C(=O)C1(c2ncccn2)CC1)C1(C)CCN(C(=O)OC(C(F)(F)F)C(F)(F)F)CC1
6 | < 100 | < 100 | COc1cccc2cc(CN3CCCC34CCN(C(=O)OC(C(F)(F)F)C(F)(F)F)CC4)[nH]c12
